Experiment [1] has as its target Geranylgeranyl transferase type I (Bos taurus, UniProt P29702+Q5EAD5). Description: Inhibition of Bovine geranylgeranyl transferase. Format: protein-complex assay.
The species named for the next experiment is Bos taurus. The experiment can be described thus: Selectivity for Bovine farnesyl transferase over geranylgeranyl transferase.
Experiment [2] deals with Protein farnesyltransferase (Bos taurus, UniProt P29702+P49355). The experiment can be described thus: Inhibition of Bovine farnesyl transferase. Format: protein-complex assay.
Experiment [3] addresses T1, Protein farnesyltransferase (Mus musculus, UniProt Q61239+Q8K2I1). Description: Effective concentration against H-ras processing in NIH 3T3 cells. The experiment is classed as functional, cell-based, NIH3T3.
In experiment [4] the target is T1, Protein farnesyltransferase. Description: Inhibition of H-ras processing in transformed NIH3T3 cells.
Experiment [5] has the same target. The experiment can be described thus: Effective concentration against H-ras processing in transformed NIH3T3 cells. The experiment is classed as functional, cell-based.
Experiment [6] addresses Protein farnesyltransferase (Homo sapiens, UniProt P49354+P49356). The experiment can be described thus: Inhibition of Farnesyl transferase inhibitor (ABT-839). The experiment is classed as protein-complex assay.

The term IC50 denotes the point on the concentration scale where inhibition reaches its midpoint. The low end stands for greater potency in that assay, the high end for weaker potency in that assay. In general, EC50 refers to the concentration at which the effect is half-maximal. Read a high EC50 as lower potency in that assay. By inhibition is commonly meant the share of the control response that was lost under treatment.

Regarding `Cc1ccccc1-c1cc(C(OCc2ccccc2)c2cncn2C)ccc1C#N` (centres undefined), the IC50 in experiment [1] was determined as 1300 nM; in experiment [2] it was 84 nM. In the experiment listed under Bos taurus, this molecule gave a Selectivity of 16. The EC50 in experiment [3] is 2700 nM.

Consider `Cn1cncc1C(OCc1ccc(C#N)cc1)c1ccc(C#N)c(-c2ccccc2CO)c1` (centres undefined), for which the IC50 in experiment [1] came to 480 nM; in experiment [2], 5.5 nM. The molecule further had an inhibition in experiment [4] of 89%.

With `COC(=O)c1ccc(COC(c2ccc(C#N)c(-c3ccccc3C(F)(F)F)c2)c2cncn2C)nc1` (centres undefined), the IC50 is 3900 nM in experiment [1] and 9 nM in experiment [2]. The molecule further came in with an inhibition in experiment [4] of 83%.

For `Cn1cncc1C(OCc1ccc(C#N)c(NCC2CCCO2)n1)c1ccc(C#N)c(-c2ccccc2C(F)(F)F)c1` (centres undefined), the IC50 worked out at 2400 nM in experiment [1], 7.5 nM in experiment [2] and 1.1 nM in experiment [6]. The molecule also had an EC50 in experiment [5] of 285 nM.
